# Source: US9695155B2, “Herbicidal substituted pyrimidinyloxy benzene compounds” (E. I. DU PONT DE NEMOURS AND COMPANY, priority 2013, dated 2017)
# Assays:
# barnyardgrass [1] = test: Test A preemergence; type: in vivo, Echinochloa crus-galli; conditions: Echinochloa crus-galli, pre-emergence, 240 h
# In short: (§1)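 Visual 0–100 rating (100 = complete control) taken about 10 d post-treatment relative to untreated checks. Preemergence: directed soil spray on sown loam/sand pots. Postemergence: seedlings 2–10 cm, 1–2 leaf. Non-phytotoxic solvent formulation with surfactant.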
# giant foxtail [2] = test: Test A preemergence; type: in vivo, Setaria faberii; conditions: Setaria faberi, pre-emergence, 240 h
# In short: as §1
# morningglory [3] = test: Test A preemergence; type: in vivo, Ipomoea spp.
# In short: as §1
# pigweed [4] = test: Test A preemergence; type: in vivo, Amaranthus retroflexus; conditions: Amaranthus retroflexus, pre-emergence
# In short: as §1
# morningglory [5] = test: Test A postemergence; type: in vivo, Ipomoea spp.; conditions: Ipomoea, post-emergence, 240 h, 0 to 100 scale where 0 is no effect and 100 is complete control, read-out: Plant response rating, Morningglory
# In short: as §1
# pigweed [6] = test: Test A postemergence; type: in vivo, Amaranthus retroflexus; conditions: Amaranthus retroflexus, post-emergence, 0 to 100 scale where 0 is no effect and 100 is complete control, read-out: Plant response rating, Pigweed
# In short: as §1
# sedge, umbrella = test: Test B flooded paddy test; type: in vivo, Cyperus difformis; conditions: Cyperus difformis, Flood, 250 g ai/ha; 0 to 100 scale where 0 is no effect and 100 is complete control; read-out: Plant response rating, Sedge, Umbrella
# In short: (§2)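 2-leaf stage plants; pots flooded to 3 cm, compound added to paddy water, depth maintained. Greenhouse 13–15 d. Visual rating vs untreated controls, 0 (no effect) to 100 (complete control); dash = no result.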
# barnyardgrass [7] = test: Test B flooded paddy test; type: in vivo, Echinochloa crus-galli; conditions: Echinochloa crus-galli; Flood, 250 g ai/ha; 0 to 100 scale where 0 is no effect and 100 is complete control; read-out: Plant response rating, Barnyardgrass
# In short: as §2
# blackgrass = test: Test C postemergence; type: in vivo, Alopecurus myosuroides; conditions: Alopecurus myosuroides, post-emergence
# In short: (§3)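 Visual injury score versus untreated controls, 0 = no effect, 100 = complete control, taken 13 to 15 days after treatment in the greenhouse. Pre-emergence pots held loam/sand; post-emergence plants grew in sphagnum peat/vermiculite mix and were sprayed at the 1- to 4-leaf stage.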
# Italian ryegrass = test: Test C postemergence; type: in vivo, Lolium multiflorum; conditions: Lolium multiflorum, post-emergence
# In short: as §3
# corn = test: Test C postemergence; type: in vivo, Zea mays; conditions: Zea mays, post-emergence
# In short: as §3
# large (Lg) crabgrass = test: Test C postemergence; type: in vivo, Digitaria sanguinalis; conditions: Digitaria sanguinalis, post-emergence
# In short: as §3
# giant foxtail [8] = test: Test C postemergence; type: in vivo, Setaria faberii; conditions: Setaria faberi, post-emergence
# In short: as §3
# johnsongrass = test: Test C postemergence; type: in vivo, Sorghum halepense
# In short: as §3
# chickweed = test: Test C postemergence; type: in vivo, Stellaria media; conditions: Stellaria media, post-emergence
# In short: as §3
smiles,measurement,setting,value
"FC(F)c1cnn(-c2ccccc2Oc2ncc(Cl)cn2)c1 [Compound 80, 5-chloro-2-[2-[4-(difluoromethyl)-1H-pyrazol-1-yl]phenoxy]pyrimidine]",pest or weed control at 125 g/ha,"barnyardgrass [1]; 125 g ai/ha, 0 to 100 scale where 0 is no effect and 100 is complete control, read-out: Plant response rating, Barnyardgrass",60%
same,pest or weed control at 500 g/ha,"barnyardgrass [1]; 500 g ai/ha, 0 to 100 scale, 0 no effect, 100 complete control, approx. 10 days, read-out: Barnyardgrass plant response rating",100%
same,pest or weed control at 125 g/ha,"giant foxtail [2]; 125 g ai/ha, 0 to 100 scale where 0 is no effect and 100 is complete control, read-out: Plant response rating, Foxtail, Giant",90%
same,pest or weed control at 500 g/ha,"giant foxtail [2]; 500 g ai/ha, 0 to 100 scale, 0 no effect, 100 complete control, approx. 10 days, read-out: Foxtail, Giant plant response rating",100%
same,"Plant response rating, Morningglory","morningglory [3]; 125 g ai/ha, 0 to 100 scale where 0 is no effect and 100 is complete control",30
same,pest or weed control at 500 g/ha,"morningglory [3]; Ipomoea, pre-emergence, 240 h, 500 g ai/ha, 0 to 100 scale, 0 no effect, 100 complete control, approx. 10 days, read-out: Morningglory plant response rating",80%
same,pest or weed control at 125 g/ha,"pigweed [4]; 125 g ai/ha, 0 to 100 scale where 0 is no effect and 100 is complete control, read-out: Plant response rating, Pigweed",0%
same,pest or weed control at 500 g/ha,"pigweed [4]; 240 h, 500 g ai/ha, 0 to 100 scale, 0 no effect, 100 complete control, approx. 10 days, read-out: Pigweed plant response rating",0%
same,pest or weed control at 125 g/ha,morningglory [5]; 125 g ai/ha,90%
same,pest or weed control at 500 g/ha,morningglory [5]; 500 g ai/ha,100%
same,pest or weed control at 125 g/ha,pigweed [6]; 125 g ai/ha,100%
same,pest or weed control at 500 g/ha,pigweed [6]; 500 g ai/ha,100%
same,pest or weed control at 250 g/ha,"sedge, umbrella",80%
same,pest or weed control at 250 g/ha,barnyardgrass [7],0%
same,pest or weed control at 16 g/ha,"blackgrass; 16 g ai/ha, postemergence, visual rating, scale 0 to 100 (0 no effect, 100 complete control), 13 to 15 days, read-out: Blackgrass plant response rating",0%
same,pest or weed control at 125 g/ha,"blackgrass; 125 g ai/ha, postemergence, read-out: Plant response rating (0 to 100), Blackgrass",40%
same,pest or weed control at 31 g/ha,"blackgrass; Postemergence, 31 g ai/ha, scale 0 to 100 (0 no effect, 100 complete control), 13 to 15 days, read-out: Plant response rating, Blackgrass",5%
same,pest or weed control at 62 g/ha,"blackgrass; Postemergence, 62 g ai/ha, scale 0 to 100 (0 no effect, 100 complete control), read-out: Plant response rating, Blackgrass",10%
same,pest or weed control at 125 g/ha,"Italian ryegrass; 125 g ai/ha, postemergence, read-out: Plant response rating (0 to 100), Ryegrass, Italian",5%
same,pest or weed control at 31 g/ha,"Italian ryegrass; Postemergence, 31 g ai/ha, scale 0 to 100 (0 no effect, 100 complete control), 13 to 15 days, read-out: Plant response rating, Ryegrass, Italian",0%
same,pest or weed control at 62 g/ha,"Italian ryegrass; Postemergence, 62 g ai/ha, scale 0 to 100 (0 no effect, 100 complete control), read-out: Plant response rating, Ryegrass, Italian",20%
same,plant injury at 16 g/ha,"corn; 16 g ai/ha, postemergence, visual rating, scale 0 to 100 (0 no effect, 100 complete control), 13 to 15 days, read-out: Corn plant response rating",0%
same,plant injury at 125 g/ha,"corn; 125 g ai/ha, postemergence, read-out: Plant response rating (0 to 100), Corn",5%
same,"Corn plant response rating (crop injury, 0 = no effect, 100 = complete kill) at 31 g/ha","corn; Postemergence, 31 g ai/ha, scale 0 to 100 (0 no effect, 100 complete control), 13 to 15 days",0%
same,"Corn plant response rating (crop injury, 0 = no effect, 100 = complete kill) at 62 g/ha","corn; Postemergence, 62 g ai/ha, scale 0 to 100 (0 no effect, 100 complete control)",5%
same,pest or weed control at 16 g/ha,"large (Lg) crabgrass; 16 g ai/ha, postemergence, visual rating, scale 0 to 100 (0 no effect, 100 complete control), 13 to 15 days, read-out: Crabgrass, Large plant response rating",0%
same,pest or weed control at 125 g/ha,"large (Lg) crabgrass; 125 g ai/ha, postemergence, read-out: Plant response rating (0 to 100), Crabgrass, Large",5%
same,pest or weed control at 31 g/ha,"large (Lg) crabgrass; Postemergence, 31 g ai/ha, scale 0 to 100 (0 no effect, 100 complete control), 13 to 15 days, read-out: Plant response rating, Crabgrass, Large",5%
same,pest or weed control at 62 g/ha,"large (Lg) crabgrass; Postemergence, 62 g ai/ha, scale 0 to 100 (0 no effect, 100 complete control), read-out: Plant response rating, Crabgrass, Large",5%
same,pest or weed control at 16 g/ha,"giant foxtail [8]; 16 g ai/ha, postemergence, visual rating, scale 0 to 100 (0 no effect, 100 complete control), 13 to 15 days, read-out: Foxtail, Giant plant response rating",0%
same,pest or weed control at 125 g/ha,"giant foxtail [8]; 125 g ai/ha, postemergence, read-out: Plant response rating (0 to 100), Foxtail, Giant",5%
same,pest or weed control at 31 g/ha,"giant foxtail [8]; Postemergence, 31 g ai/ha, scale 0 to 100 (0 no effect, 100 complete control), 13 to 15 days, read-out: Plant response rating, Foxtail, Giant",5%
same,pest or weed control at 62 g/ha,"giant foxtail [8]; Postemergence, 62 g ai/ha, scale 0 to 100 (0 no effect, 100 complete control), read-out: Plant response rating, Foxtail, Giant",5%
same,Johnsongrass plant response rating,"johnsongrass; 16 g ai/ha, postemergence, visual rating, scale 0 to 100 (0 no effect, 100 complete control), 13 to 15 days",0
same,pest or weed control at 125 g/ha,"johnsongrass; Sorghum halepense, post-emergence, 125 g ai/ha, postemergence, read-out: Plant response rating (0 to 100), Johnsongrass",5%
same,pest or weed control at 31 g/ha,"johnsongrass; Sorghum halepense, post-emergence, Postemergence, 31 g ai/ha, scale 0 to 100 (0 no effect, 100 complete control), 13 to 15 days, read-out: Plant response rating, Johnsongrass",0%
same,pest or weed control at 62 g/ha,"johnsongrass; Sorghum halepense, post-emergence, Postemergence, 62 g ai/ha, scale 0 to 100 (0 no effect, 100 complete control), read-out: Plant response rating, Johnsongrass",5%
same,pest or weed control at 16 g/ha,"chickweed; 16 g ai/ha, postemergence, visual rating, scale 0 to 100 (0 no effect, 100 complete control), 13 to 15 days, read-out: Chickweed plant response rating",50%
same,pest or weed control at 125 g/ha,"chickweed; 125 g ai/ha, postemergence, read-out: Plant response rating (0 to 100), Chickweed",70%
same,pest or weed control at 31 g/ha,"chickweed; Postemergence, 31 g ai/ha, scale 0 to 100 (0 no effect, 100 complete control), 13 to 15 days, read-out: Plant response rating, Chickweed",60%
same,pest or weed control at 62 g/ha,"chickweed; Postemergence, 62 g ai/ha, scale 0 to 100 (0 no effect, 100 complete control), read-out: Plant response rating, Chickweed",65%
